In brackets after ≈: the same amount, converted by molar mass.
Assays:
Mycolicibacterium phlei [1] = assay: Antibacterial activity against Mycobacterium phlei; assay type: functional
Micrococcus luteus = assay: Antibacterial activity against Sarcina lutea; assay type: functional
Bacillus subtilis = assay: Antibacterial activity against Bacillus subtilis; assay type: functional
Staphylococcus aureus [2] = assay: Antibacterial activity against Staphylococcus aureus; assay type: functional
Bacillus anthracis = assay: Antibacterial activity against Bacillus anthracis; assay type: functional
[3] = system: Staphylococcus epidermidis; assay: Antibacterial activity against methicillin-resistant Staphylococcus epidermidis; assay type: functional
Staphylococcus aureus [4] = assay: Antibacterial activity against methicillin-resistant Staphylococcus aureus; assay type: functional
Trypanosoma brucei = assay: Trypanocidal activity against bloodstream forms of Trypanosoma brucei […] incubated for 24 hrs followed by compound wash out after 72 hrs; assay type: functional
Alternaria kikuchiana [5] = assay: Antimicrobial activity against Alternaria kikuchiana A-14 by agar diffusion method; assay type: functional
Staphylococcus aureus [6] = assay: Antibacterial activity against methicillin-sensitive Staphylococcus aureus; assay type: functional
Xanthomonas oryzae = assay: […] activity against Xanthomonas oryzae by agar diffusion method; assay type: functional
[7] = system: Mycobacteroides abscessus; assay: Antimycobacterial activity against Mycobacterium abscessus ATCC 19977; assay type: functional
Mycobacterium avium = assay: Antimycobacterial activity against Mycobacterium avium IFO 315 by agar diffusion method; assay type: functional
Influenza A virus H3N2 = assay: Antiviral activity against Influenza A virus (A/Hong Kong/7/1987(H3N2)) infected in MDCK cells after 3 days by MTT assay; assay type: functional, organism-based; settings: 72 h
[8] = system: Human immunodeficiency virus 1; assay: Antiviral activity against HIV1; assay type: functional, organism-based
Alternaria kikuchiana [9] = assay: Antimicrobial activity against Alternaria kikuchiana NIAS by agar diffusion method; assay type: functional
Pyricularia oryzae = assay: […] activity against Pyricularia oryzae by agar diffusion method; assay type: functional
Mycolicibacterium phlei [10] = assay: Antimycobacterial activity against Mycobacterium phlei IPCR by agar diffusion method; assay type: functional
[11] = system: Human immunodeficiency virus 1; assay: Antiviral activity against HIV1 infected in U937 cells; assay type: functional, organism-based; settings: Human immunodeficiency virus 1, U-937
Staphylococcus aureus [12] = assay: Antibacterial activity against Staphylococcus aureus FDA 209P by agar diffusion method; assay type: functional

SMILES | MIC (Mycolicibacterium phlei [1]) [µg/mL] | MIC (Micrococcus luteus) [µg/mL] | MIC (Bacillus subtilis) [µg/mL] | MIC (Staphylococcus aureus [2]) [µg/mL] | MIC [3] [µg/mL] | MIC (Staphylococcus aureus [4]) [µg/mL] | also measured
CCCCC(=O)O[C@@H]1C=C[C@]2(O[C@H]([C@@H](CC)C(=O)[C@@H](C)[C@@H](O)[C@H](C)[C@@H]3O[C@@H]([C@@H](CC)C(=O)O)CC[C@@H]3C)[C@@H](C)C[C@H]2C)O[C@@]12CC[C@@](C)([C@H]1CC[C@](O)(CC)[C@H](C)O1)O2 | 3.12 (≈ 3.74 µM) | 1.56 (≈ 1.87 µM) | 1.56 (≈ 1.87 µM) | 0.78 (≈ 0.934 µM) |  |  | 
CCCN(CCC)C(=O)[C@H](CC)[C@H]1CC[C@H](C)[C@H]([C@@H](C)[C@H](O)[C@H](C)C(=O)[C@H](CC)[C@H]2O[C@]3(C=C[C@@H](O)[C@]4(CC[C@@](C)([C@H]5CC[C@](O)(CC)[C@H](C)O5)O4)O3)[C@H](C)C[C@@H]2C)O1 |  |  |  |  | 4 to 8 (≈ 4.8 to 9.59 µM) |  | MIC (Bacillus anthracis): 4 µg/mL (≈ 4.8 µM)
CCCC(=O)O[C@@H]1C=C[C@]2(O[C@H]([C@@H](CC)C(=O)[C@@H](C)[C@@H](O)[C@H](C)[C@@H]3O[C@@H]([C@@H](CC)C(=O)O)CC[C@@H]3C)[C@@H](C)C[C@H]2C)O[C@@]12CC[C@@](C)([C@H]1CC[C@](O)(CC)[C@H](C)O1)O2 | 1.56 (≈ 1.9 µM) | 0.78 (≈ 0.95 µM) | 0.78 (≈ 0.95 µM) | 0.78 (≈ 0.95 µM) |  |  | 
CC[C@@H](C(=O)[C@@H](C)[C@@H](O)[C@H](C)[C@@H]1O[C@@H]([C@@H](CC)C(=O)OCc2cc([N+](=O)[O-])cc([N+](=O)[O-])c2)CC[C@@H]1C)[C@H]1O[C@]2(C=C[C@@H](O)[C@]3(CC[C@@](C)([C@H]4CC[C@](O)(CC)[C@H](C)O4)O3)O2)[C@H](C)C[C@@H]1C |  |  |  |  | 4 to 8 (≈ 4.3 to 8.59 µM) | 8 to 16 (≈ 8.59 to 17.2 µM) | 
CC[C@@H](C(=O)[C@@H](C)[C@@H](O)[C@H](C)[C@@H]1O[C@@H]([C@@H](CC)C(=O)O)CC[C@@H]1C)[C@H]1O[C@]2(C=C[C@@H](OC=O)[C@]3(CC[C@@](C)([C@H]4CC[C@](O)(CC)[C@H](C)O4)O3)O2)[C@H](C)C[C@@H]1C | 12.5 (≈ 16 µM) | 3.12 (≈ 4.01 µM) | 3.12 (≈ 4.01 µM) | 1.56 (≈ 2 µM) |  |  | 
CCCCNC(=O)[C@H](CC)[C@H]1CC[C@H](C)[C@H]([C@@H](C)[C@H](O)[C@H](C)C(=O)[C@H](CC)[C@H]2O[C@]3(C=C[C@@H](O)[C@]4(CC[C@@](C)([C@H]5CC[C@](O)(CC)[C@H](C)O5)O4)O3)[C@H](C)C[C@@H]2C)O1 |  |  |  |  |  |  | GI50 (Trypanosoma brucei): 40 nM
CC[C@@H](C(=O)[C@@H](C)[C@@H](O)[C@H](C)[C@@H]1O[C@@H]([C@@H](CC)C(=O)O)CC[C@@H]1C)[C@H]1O[C@]2(C=C[C@@H](O)[C@]3(CC[C@@](C)([C@H]4CC[C@](O)(CC)[C@H](C)O4)O3)O2)[C@H](C)C[C@@H]1C [SALINOMYCIN] | 12.5 (≈ 16.6 µM) | 3.12 (≈ 4.15 µM) | 3.12 (≈ 4.15 µM) | 1.56 (≈ 2.08 µM) | 1 to 16 (≈ 1.33 to 21.3 µM) | 1 to 16 (≈ 1.33 to 21.3 µM) | MIC (Alternaria kikuchiana [5]): 50 µg/mL (≈ 66.6 µM); MIC (Staphylococcus aureus [6]): 1 to 2 µg/mL (≈ 1.33 to 2.66 µM); MIC (Xanthomonas oryzae): 50 µg/mL (≈ 66.6 µM); MIC [7]: > 20 µg/mL; MIC (Mycobacterium avium): 12.5 µg/mL (≈ 16.6 µM); EC50 (Influenza A virus H3N2): 400 to 4300 nM; EC50 [8]: 0.4 µg/mL (≈ 0.533 µM); GI50 (Trypanosoma brucei): 180 nM; MIC (Bacillus anthracis): 1 µg/mL (≈ 1.33 µM); MIC (Alternaria kikuchiana [9]): 50 µg/mL (≈ 66.6 µM); MIC (Pyricularia oryzae): 25 µg/mL (≈ 33.3 µM); MIC (Mycolicibacterium phlei [10]): 12.5 µg/mL (≈ 16.6 µM); EC50 [11]: 0.09 µg/mL (≈ 0.12 µM)
CC[C@H]1OC(=O)[C@H](C)[C@@H](O[C@H]2C[C@@](C)(OC)[C@@H](O)[C@H](C)O2)[C@H](C)[C@@H](O[C@@H]2O[C@H](C)C[C@H](N(C)C)[C@H]2O)[C@](C)(O)C[C@@H](C)C(=O)[C@H](C)[C@@H](O)[C@]1(C)O [ERYTHROMYCIN] |  |  |  |  |  |  | MIC (Staphylococcus aureus [12]): 3.12 µg/mL (≈ 4.25 µM)
CC[C@@H](C(=O)[C@@H](C)[C@@H](O)[C@H](C)[C@@H]1O[C@@H]([C@@H](CC)C(=O)On2nnc3ccccc32)CC[C@@H]1C)[C@H]1O[C@]2(C=C[C@@H](O)[C@]3(CC[C@@](C)([C@H]4CC[C@](O)(CC)[C@H](C)O4)O3)O2)[C@H](C)C[C@@H]1C |  |  |  |  |  |  | MIC (Staphylococcus aureus [6]): 1 to 2 µg/mL (≈ 1.15 to 2.3 µM)
CC[C@@H](C(=O)[C@@H](C)[C@@H](O)[C@H](C)[C@@H]1O[C@@H]([C@@H](CC)C(=O)Nc2ccccc2)CC[C@@H]1C)[C@H]1O[C@]2(C=C[C@@H](O)[C@]3(CC[C@@](C)([C@H]4CC[C@](O)(CC)[C@H](C)O4)O3)O2)[C@H](C)C[C@@H]1C |  |  |  |  |  | 4 (≈ 4.84 µM) | MIC (Staphylococcus aureus [6]): 2 µg/mL (≈ 2.42 µM)
CCC(=O)O[C@@H]1C=C[C@]2(O[C@H]([C@@H](CC)C(=O)[C@@H](C)[C@@H](O)[C@H](C)[C@@H]3O[C@@H]([C@@H](CC)C(=O)O)CC[C@@H]3C)[C@@H](C)C[C@H]2C)O[C@@]12CC[C@@](C)([C@H]1CC[C@](O)(CC)[C@H](C)O1)O2 | 1.56 (≈ 1.93 µM) | 0.78 (≈ 0.966 µM) | 0.78 (≈ 0.966 µM) | 0.78 (≈ 0.966 µM) |  |  | 
CC[C@@H](C(=O)[C@@H](C)[C@@H](O)[C@H](C)[C@@H]1O[C@@H]([C@@H](CC)C(=O)OCC(F)(F)F)CC[C@@H]1C)[C@H]1O[C@]2(C=C[C@@H](O)[C@]3(CC[C@@](C)([C@H]4CC[C@](O)(CC)[C@H](C)O4)O3)O2)[C@H](C)C[C@@H]1C |  |  |  |  | 2 to 4 (≈ 2.4 to 4.8 µM) | 0.5 to 1 (≈ 0.6 to 1.2 µM) | GI50 (Trypanosoma brucei): 57 nM
CC[C@@H](C(=O)[C@@H](C)[C@@H](O)[C@H](C)[C@@H]1O[C@@H]([C@@H](CC)C(=O)N(CC)CC)CC[C@@H]1C)[C@H]1O[C@]2(C=C[C@@H](O)[C@]3(CC[C@@](C)([C@H]4CC[C@](O)(CC)[C@H](C)O4)O3)O2)[C@H](C)C[C@@H]1C |  |  |  |  | 4 to 8 (≈ 4.96 to 9.92 µM) |  | MIC (Bacillus anthracis): 1 µg/mL (≈ 1.24 µM)
CC[C@@H](C(=O)[C@@H](C)[C@@H](O)[C@H](C)[C@@H]1O[C@@H]([C@@H](CC)C(=O)NCc2ccc(F)cc2)CC[C@@H]1C)[C@H]1O[C@]2(C=C[C@@H](O)[C@]3(CC[C@@](C)([C@H]4CC[C@](O)(CC)[C@H](C)O4)O3)O2)[C@H](C)C[C@@H]1C |  |  |  |  | 16 to 128 (≈ 18.6 to 149 µM) | 16 to 64 (≈ 18.6 to 74.6 µM) | 
CN[C@@H]1[C@H](O[C@H]2[C@H](O[C@H]3[C@H](O)[C@@H](O)[C@H](N=C(N)N)[C@@H](O)[C@@H]3N=C(N)N)O[C@@H](C)[C@]2(O)C=O)O[C@@H](CO)[C@H](O)[C@H]1O [STREPTOMYCIN] |  |  |  |  |  |  | MIC (Staphylococcus aureus [12]): 3.12 µg/mL (≈ 5.36 µM)
CC[C@@H](C(=O)[C@@H](C)[C@@H](O)[C@H](C)[C@@H]1O[C@@H]([C@@H](CC)C(=O)OC[C@H]2O[C@@H](n3cc(F)c(=O)[nH]c3=O)C[C@@H]2O)CC[C@@H]1C)[C@H]1O[C@]2(C=C[C@@H](O)[C@]3(CC[C@@](C)([C@H]4CC[C@](O)(CC)[C@H](C)O4)O3)O2)[C@H](C)C[C@@H]1C |  |  |  |  | 8.17 to 32.7 (≈ 8.34 to 33.4 µM) | 8.17 to 32.7 (≈ 8.34 to 33.4 µM) | 
CC[C@@H](C(=O)[C@@H](C)[C@@H](O)[C@H](C)[C@@H]1O[C@@H]([C@@H](CC)C(=O)O)CC[C@@H]1C)[C@H]1O[C@]2(C=C[C@@H](OC(C)=O)[C@]3(CC[C@@](C)([C@H]4CC[C@](O)(CC)[C@H](C)O4)O3)O2)[C@H](C)C[C@@H]1C | 6.25 (≈ 7.88 µM) | 1.56 (≈ 1.97 µM) | 1.56 (≈ 1.97 µM) | 0.78 (≈ 0.984 µM) |  |  | 
O=C(N[C@H](CO)[C@H](O)c1ccc([N+](=O)[O-])cc1)C(Cl)Cl [CHLORAMPHENICOL] |  |  |  |  |  |  | MIC (Staphylococcus aureus [12]): 3.12 µg/mL (≈ 9.66 µM)
CN(C)[C@@H]1C(O)=C(C(N)=O)C(=O)[C@@]2(O)C(O)=C3C(=O)c4c(O)cccc4[C@@](C)(O)[C@H]3C[C@@H]12 [TETRACYCLINE] |  |  |  |  |  |  | MIC (Staphylococcus aureus [12]): 3.12 µg/mL (≈ 7.02 µM)

Source: ChEMBL document CHEMBL4350981, “Salinomycin and its derivatives - A new class of multiple-targeted "magic bullets"” (Eur J Med Chem, 2019)
